The values that follow come from US9150581B2, “Nicotinic receptor compounds” (priority 2011, dated 2015).

The subject of data set [1] is mice. The data set can be described thus: Spontaneous activity (photocell activity cages). The class given is in vivo, mouse. Conditions: sc. As for the experimental part:
(§1) Interruptions of the photocell beams (two banks of eight cells each) were then recorded for the next 10 min. Data were expressed as number of photocell interruptions. Rectal temperature was measured by a thermistor probe (inserted 24 mm) and digital thermometer (Yellow Springs Instrument Co., Yellow Springs, Ohio). […] The difference in rectal temperature before and after treatment was calculated for each mouse. The ambient temperature of the laboratory varied from 21 to 24° C. from day to day.

A further data set deals with α4β2 nAChR (Rattus norvegicus (Rat), UniProt P09483+P12390). The data set can be described thus: Inhibition of [3H]epibatidine binding at the α4β2 nAChR in male rat cerebral cortex. The conditions noted are these: read-out: αβ [3H]Epibatidine (Ki).
The test system of data set [2] is mice. As to the kind of experiment: Hypothermia (rectal temperature). The class given is in vivo, mouse. Conditions: sc. How it is done: as §1
The test system of data set [3] is mice. The data set can be described thus: Tail-flick test (antinociception). The conditions noted are these: sc; for Tail-Flick, % effect at dose: @ 10 mg/kg. The data set is classed as in vivo, mouse. As for the experimental part:
(§2) In the tail-flick method of D'Amour and Smith, (D'Amour, F. E.; Smith, D. L. J. Pharmacol. Exp. Ther. 1941, 72, 74-79), the tail is exposed to a heat lamp and the amount of time taken for the animal to move (flick) its tail away from the heat is recorded. […] Mice were placed into a 10-cm wide glass cylinder on a hot plate (Thermojust Apparatus) maintained at 55.0° C. Two control latencies at least 10 min apart were determined for each mouse. […] The reaction time was scored when the animal jumped or licked its paws. The mice were tested 5 min after subcutaneous (sc) injections of nicotinic ligands for the dose-response determination. Antinociceptive response was calculated as percentage of maximum possible effect (% MPE, where % MPE=[(test−control)/(maximum latency−control)×100]).

For data set [4], the system named is mice. The data set can be described thus: Antagonism of nicotine antinociception, tail-flick. The class given is in vivo, mouse. Conditions: for AD50 Tail-Flick: mice pretreated sc 10 min before nicotine 2.5 mg/kg sc. How it is done: as §2
(§3) Nicotine was administered at a dose of 2.5 mg/kg, sc (an ED84 dose), and mice were tested 5 min later. ED50 and AD50 values with 95% confidence limits were determined.

The target in another data set is α7 nAChR (Rattus norvegicus (Rat), UniProt Q05941). The class given is binding. Conditions: read-out: α7 [125I]iodoMLA (Ki).
Data set [5] deals with mice. The data set can be described thus: Hot-plate test (antinociception). Conditions: sc; for Hot-Plate, % effect at dose: @ 10 mg/kg. The class given is in vivo, mouse. As for the experimental part:
as §2
For orientation: Hot-plate and tail-flick tests time the reaction to a heat stimulus.

Data set [6] concerns mice. As to the kind of experiment: Antagonism of nicotine antinociception, hot-plate. The class given is in vivo, mouse. The conditions noted are these: for Antagonism Hot-Plate, % at dose: before nicotine 2.5 mg/kg sc. How it is done: as §2, §3
In the next data set the test system is Male ICR adult mice. The data set is classed as in vivo, mouse.
The test system of data set [7] is Male Sprague-Dawley rats. Conditions: rats, s.c., compound alone. How it is done: Male Sprague-Dawley rats (approximately 300 g) were obtained from Harlan, Inc. (Indianapolis, Ind.) and group-housed upon arrival. Food and water were freely available for all rats at all times. Housing and experimental rooms were maintained on a 12 h light/dark cycle with lights on at 7:00 AM with an average temperature of 21° C.
Surgical Procedures. To measure changes in heart rate and mean arterial pressure, rats were implanted with telemetric transmitters (TA11PAC40 or TL11M2-C50-PXT, Data Sciences International, Transoma Medical Inc., St. Paul, Minn., USA) under ketamine (90 mg/kg, i.p.) and xylazine (10 mg/kg, i.p.) anesthesia. An incision is made in the skin approximately 1 in to the left or right of the spine and over the left or right thigh to expose the femoral artery. The transmitter is placed into the incision on the dorsal side and into a subcutaneous pocket (made by separating the connective tissue between the skin and muscle) on the side of the abdomen. This positioning prevents the rats from manipulating the incision site and gaining access to the transmitter. The catheter extending from the base of the transmitter is threaded subcutaneously, placed 3 cm into the femoral artery, and secured with suture. Incisions were closed with 5.0 Ethicon nylon monofilament suture. Following surgery, rats were singly-housed and monitored for at least 7 days for signs of recovery (normal eating, drinking, and defecating patterns) prior to experimentation. All rats continued to have free access to food and water at all times.
Telemetry System. The system consists of battery-operated transmitters surgically implanted (described above), Physiotel® receivers, the DSI Data Exchange Matrix, and the Dataquest A.R.T. system, which collects and stores digital data from the receiver onto a computer (Data Sciences International, Transoma Medical Inc., St. Paul, Minn., USA). Blood pressure and heart rate data were analyzed by the Dataquest A.R.T. Gold Analysis 3.01 software.
At the start of an experiment, rats' home cages were placed on top of the receivers, and baseline data was collected for at least 1 h to allow heart rate and blood pressure to return to resting levels. All rats were given a saline injection to ensure that they are habituated to the injection and handling procedure on the test day. After heart rate and blood pressure returned to resting levels again, rats were injected with a treatment, consisting either of a single drug dose or a pretreatment drug administered 15 min prior to a test drug. Data was collected for at least 2 h following the last injection. All injections were administered subcutaneously (s.c.) in a volume of 1 ml/kg.
Each rat was used to evaluate multiple experimental conditions, such that each rat may receive as many as 4-6 different treatments, one per week with at least 6 days between drug exposures. […] Once the rats weigh approximately 450 g (body weight at time of transmitter implant: 300-350 g), the rat is no longer used for experiments, and the transmitter is removed.
Data were collected throughout baseline, before, and after drug treatments. The analysis program calculated an average heart rate and mean arterial pressure (MAP) every 10 sec. These 10 secepochs are then averaged over 1 min per rat, and data from at least 6 rats were averaged for each treatment group.

Data set [8] has as its system Male Sprague-Dawley rats. The class given is in vivo, rat. The conditions noted are these: compound alone (FIG. 3). How it is done:
A drug discrimination assay was performed to measure the relevant effects of nicotine as it influences tobacco use and abuse. In a drug discrimination assay, food restricted rates are trained to make one response (select one of two nose-poke apertures in the test chamber) following administration of a particular drug, and a different response (select the other aperture) following administration of saline. The appropriate response is followed by delivery of food, and there is no cue as to which aperture will result in food delivery other than the presence or absence of the drug. Once trained, the animals respond on the “drug-associated” aperture following drug administration and on the “saline-associated” aperture following saline administration. In addition, administration of drug doses that are smaller than the training dose produce intermediate responses on the drug-associated aperture such that monotonically increasing dose-response curves can be generated in drug discrimination assays.
Male Sprague-Dawley rats were obtained from Harlan, Inc (Indianapolis, Ind.) and singly housed in polycarbonate cages with water continuously available. All rats weighed approximately 280-290 gms at the start of the experiment. A food-restricted diet of Purina rodent food allowed the animals to grow but maintain motivation to respond to earn food pellets. A 12 hr light-dark cycle turned the lights on at 7:00 am. Standard operant conditioning chambers (ENV-008, Med-Associates, St Albans, Vt.) were used for establishing and evaluating the nicotine discrimination. Each chamber contains two nose-poke devices with apertures containing yellow LED lights on either side of a dipper capable of delivering 50 μl of fluid into a third opening.
Initially, each rat was trained to insert its nose into one of the apertures and received vanilla-flavored Ensure as a consequence. During discrimination training, rats designated in the small dose group were injected with either saline or 0.32 mg/kg of nicotine. Ten consecutive responses on the appropriate lever (one side following saline administration; the other side following nicotine administration) was followed by presentation of the Ensure for 10 s, followed by a 10 s timeout. Selection of the incorrect lever, and completion of the 10 consecutive responses in this lever results in a 10 s timeout. Criteria for learning the discrimination are 1) responding on the first FR of the session is completed on the injection appropriate aperture; 2) >85% of the total session responses are made on the injection-appropriate aperture.
Each session was divided into several components of 25 min duration. Following an injection, the first five minutes of each component were black out, and the stimulus lights were illuminated for the remaining 20 min, during which injection-appropriate responses were reinforced.
One to four components comprised daily sessions Animals were injected with saline or nicotine prior to the start of the session, or following one or more of the […] components. Possible injection conditions were (S=saline, N=nicotine) S—S—S—S; N; S—N; S—S—N; S—S—S—N. Nicotine administration is always given in the final component if it is given at all.
If a potential antagonist was given, it was administered prior to the session at a time determined by earlier studies to be sufficient for peak effects to be established. The session components then comprised increasing doses of nicotine, each given before consecutive blackout periods. No more than two antagonist sessions were given each week, and once each month a nicotine dose-response curve was determined to assure no changes in sensitivity to nicotine. Full generalization to the nicotine discriminative cue is defined by >85% responding on the drug-associated aperture and completing at least one FR.
A second, large-nicotine trained group of rats were treated in an identical manner except that their training dose of nicotine is 1.78 mg/kg. […]

α7 nAChR, sequence (Q05941 23-502 limits assumed): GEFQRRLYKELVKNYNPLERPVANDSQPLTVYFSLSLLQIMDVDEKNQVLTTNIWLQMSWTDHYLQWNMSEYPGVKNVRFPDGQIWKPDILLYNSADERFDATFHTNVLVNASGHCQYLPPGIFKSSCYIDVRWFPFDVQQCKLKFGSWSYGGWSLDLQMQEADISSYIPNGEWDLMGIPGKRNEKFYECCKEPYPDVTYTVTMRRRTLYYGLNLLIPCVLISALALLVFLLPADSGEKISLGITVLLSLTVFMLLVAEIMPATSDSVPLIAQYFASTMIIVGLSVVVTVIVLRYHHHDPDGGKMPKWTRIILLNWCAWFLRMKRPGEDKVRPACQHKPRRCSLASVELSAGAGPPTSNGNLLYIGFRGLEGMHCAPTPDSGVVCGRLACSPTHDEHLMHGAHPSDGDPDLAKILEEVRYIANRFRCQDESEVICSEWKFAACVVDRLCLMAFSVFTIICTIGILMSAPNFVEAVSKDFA
α4β2 nAChR, sequence (P09483 31-630 limits assumed): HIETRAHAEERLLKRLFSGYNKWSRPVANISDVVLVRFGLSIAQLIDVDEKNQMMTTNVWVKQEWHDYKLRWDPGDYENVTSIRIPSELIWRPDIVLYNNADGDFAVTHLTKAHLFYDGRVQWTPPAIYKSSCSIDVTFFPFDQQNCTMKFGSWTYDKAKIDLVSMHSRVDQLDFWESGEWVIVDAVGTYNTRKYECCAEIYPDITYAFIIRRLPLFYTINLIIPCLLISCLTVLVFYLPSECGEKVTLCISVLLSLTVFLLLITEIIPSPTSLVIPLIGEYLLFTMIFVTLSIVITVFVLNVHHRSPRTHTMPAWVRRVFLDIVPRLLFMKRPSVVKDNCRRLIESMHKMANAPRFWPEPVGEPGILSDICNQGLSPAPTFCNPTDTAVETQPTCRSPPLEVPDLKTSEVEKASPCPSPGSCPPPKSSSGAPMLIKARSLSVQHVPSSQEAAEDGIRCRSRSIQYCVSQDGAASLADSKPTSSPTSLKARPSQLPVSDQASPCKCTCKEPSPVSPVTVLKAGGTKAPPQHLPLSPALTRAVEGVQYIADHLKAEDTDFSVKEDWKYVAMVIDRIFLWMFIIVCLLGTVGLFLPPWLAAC
α4β2 nAChR, sequence (P12390 25-500 limits assumed): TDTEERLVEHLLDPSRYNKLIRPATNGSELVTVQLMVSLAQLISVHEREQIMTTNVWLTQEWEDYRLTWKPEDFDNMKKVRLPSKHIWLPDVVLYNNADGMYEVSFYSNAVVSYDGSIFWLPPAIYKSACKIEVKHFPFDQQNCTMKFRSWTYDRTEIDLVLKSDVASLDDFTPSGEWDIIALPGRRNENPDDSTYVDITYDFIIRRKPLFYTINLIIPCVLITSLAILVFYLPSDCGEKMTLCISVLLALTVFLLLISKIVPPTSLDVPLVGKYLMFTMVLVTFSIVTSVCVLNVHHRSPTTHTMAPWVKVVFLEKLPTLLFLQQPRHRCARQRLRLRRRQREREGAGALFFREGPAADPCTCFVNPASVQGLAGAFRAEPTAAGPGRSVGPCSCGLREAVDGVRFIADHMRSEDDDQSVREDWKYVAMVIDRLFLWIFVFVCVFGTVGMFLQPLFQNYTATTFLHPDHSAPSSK

A word on the Ki: it is a dissociation constant, usually derived from enzyme kinetics or from competition with a known ligand. As to “2-exo-2-Fluoro-3-(3′-benzamide)deschloroepibatidine Hydrochloride [RTI-7527-169]”, the “ED50 Spontaneous Activity” value in the data set on mice [1] worked out at 1 mg/kg. Further, the Ki at α4β2 nAChR turned out to be 0.36 ± 0.088 nM; at α7 nAChR it was 870 nM. In the data set on mice [2], the “ED50 Hypothermia” value amounted to 1.7 mg/kg. Further, the “ED50 Tail-Flick” value in the data set with mice [3] (tested 5 min after injection) was 5.6 mg/kg. Besides, the “Antagonism Tail-Flick, % at dose” value in the data set with mice [4] (@ 500 μg/kg, before nicotine 2.5 mg/kg sc) stood at 10% @ 500. In addition, in the data set with mice [5] (tested 5 min after injection), the “ED50 Hot-Plate” value is on record as 3.6 mg/kg. Besides, the “Antagonism Hot-Plate, % at dose” value in the data set with mice [6] (@ 500 μg/kg) came to 20% @.
Take “2-exo-2-Fluoro-3-(4′-benzamide)deschloroepibatidine Hydrochloride [RTI-7527-168]”: the “ED50 Spontaneous Activity” value in the data set on mice [1] was determined as 3.5 mg/kg. The Ki on α4β2 nAChR was 0.12 ± 0.021 nM; on α7 nAChR, 1870 nM. Moreover, in the data set on mice [2], the “ED50 Hypothermia” value was 4.2 mg/kg. The “Tail-Flick, % effect at dose” value in the data set with mice [3] is listed as 16% @ 10. Further, in the data set on mice [4], the “AD50 Tail-Flick” value is 0.009 mg/kg. For the same compound, the “Hot-Plate, % effect at dose” value in the data set on mice [5] worked out at 60% @ 10. Moreover, the “Antagonism Hot-Plate, % at dose” value with mice [6] (@ 2000 μg/kg) is listed as 1% @.
In general, ED50 refers to the dose at which the effect has come halfway, by size or by number of responders. Lower therefore signals an effect at a small dose. For `c1cnc2cc3c(cc2n1)[C@@H]1CNC[C@H]3C1` [varenicline, reference compound], the ED50 in the data set with mice [1] (Mus musculus) is 2.1 mg/kg; in the data set with mice [2] (Mus musculus) it was 2.8 mg/kg. For the same compound, in the data set with Male ICR adult mice (compound alone at the doses used), the “Preference or aversion induced by compound itself in CPP” value was “without a significant effect on its own”. The “Blockade of nicotine CPP” value in the data set with Male ICR adult mice (mouse, s.c. 10 min prior to nicotine 0.5 mg/kg, several doses) was “dose-dependently blocked nicotine CPP”. Also, the “Tail-Flick, % effect at dose” value in the data set on mice [3] was determined as 11% @ 10. In the data set on Male Sprague-Dawley rats [7], the “Effect on blood pressure” value is “substantial increases in blood pressure”. In the data set on Male Sprague-Dawley rats [8], the “Nicotine-like discriminative stimulus effects” value is reported as “nearly full nicotine-like discriminative stimulus effects”. In the data set on mice [4], the “AD50 Tail-Flick” value is 0.0002 mg/kg. On α7 nAChR, the Ki was 32.5 nM. In addition, the “Hot-Plate, % effect at dose” value in the data set on mice [5] came out at 10% @ 10. Also, in the data set with mice [6] (mice pretreated sc 10 min before nicotine 2.5 mg/kg sc), the “AD50 Hot-Plate” value amounted to 0.47 mg/kg.
